Measured values taken from ChEMBL document CHEMBL3045835, “Comparative study of conventional and microwave-assisted synthesis of some Schiff bases and their potential as antimicrobial agents” (2012).
Values after ≈ are worked out from the molar mass of the structure shown.

Assays:
Format in all cases: functional
Bacillus pumilus [1] = experiment: Antibacterial activity against Bacillus pumilus MTCC 1456 at 1000 ug/ml after 18 hr by cup-plate method; conditions: MTCC 1456, 18 h, read-out: DIZ
Bacillus subtilis [2] = experiment: Antibacterial activity against Bacillus subtilis MTCC 441 at 1000 ug/ml after 18 hr by cup plate method; conditions: MTCC 441, 18 h, read-out: DIZ
Staphylococcus aureus [3] = experiment: Antibacterial activity against Staphylococcus aureus MTCC 1430 after 24 hr by broth dilution method; conditions: MTCC 1430, 24 h
Penicillium chrysogenum [4] = experiment: Antifungal activity against Penicillium chrysogenum MTCC 161 at 100 ug/ml after 18 hr by cup-plate method; conditions: MTCC 161, 18 h, read-out: DIZ
Staphylococcus aureus [5] = experiment: Antibacterial activity against Staphylococcus aureus MTCC 1430 at 100 ug/ml after 18 hr by cup-plate method; conditions: MTCC 1430, 18 h, read-out: DIZ
Pseudomonas fluorescens [6] = experiment: Antibacterial activity against Pseudomonas fluorescens MTCC 2421 at 1500 ug/ml after 18 hr by cup-plate method; conditions: MTCC 2421, 18 h, read-out: DIZ
Bacillus pumilus [7] = experiment: Antibacterial activity against Bacillus pumilus MTCC 1456 at 500 ug/ml after 18 hr by cup-plate method; conditions: MTCC 1456, 18 h, read-out: DIZ
Pseudomonas aeruginosa [8] = experiment: Antibacterial activity against Pseudomonas aeruginosa MTCC 424 after 24 hr by broth dilution method; conditions: MTCC 424, 24 h
Pseudomonas aeruginosa [9] = experiment: Antibacterial activity against Pseudomonas aeruginosa MTCC 424 at 200 ug/ml after 18 hr by cup-plate method; conditions: MTCC 424, 18 h, read-out: DIZ
Staphylococcus aureus [10] = experiment: Antibacterial activity against Staphylococcus aureus MTCC 1430 at 1000 ug/ml after 18 hr by cup-plate method; conditions: MTCC 1430, 18 h, read-out: DIZ
Penicillium chrysogenum [11] = experiment: Antifungal activity against Penicillium chrysogenum MTCC 161 at 1000 ug/ml after 18 hr by cup-plate method; conditions: MTCC 161, 18 h, read-out: DIZ
Pseudomonas fluorescens [12] = experiment: Antibacterial activity against Pseudomonas fluorescens MTCC 2421 at 500 ug/ml after 18 hr by cup-plate method; conditions: MTCC 2421, 18 h, read-out: DIZ
Staphylococcus aureus [13] = experiment: Antibacterial activity against Staphylococcus aureus MTCC 1430 at 200 ug/ml after 18 hr by cup-plate method; conditions: MTCC 1430, 18 h, read-out: DIZ
Aspergillus niger [14] = experiment: Antifungal activity against Aspergillus niger MTCC 2546 at 1000 ug/ml after 18 hr by cup-plate method; conditions: MTCC 2546, 18 h, read-out: DIZ
Penicillium chrysogenum [15] = experiment: Antifungal activity against Penicillium chrysogenum MTCC 161 at 200 ug/ml after 18 hr by cup-plate method; conditions: MTCC 161, 18 h, read-out: DIZ
Bacillus pumilus [16] = experiment: Antibacterial activity against Bacillus pumilus MTCC 1456 after 24 hr by broth dilution method; conditions: MTCC 1456, 24 h
Penicillium chrysogenum [17] = experiment: Antifungal activity against Penicillium chrysogenum MTCC 161 at 500 ug/ml after 18 hr by cup-plate method; conditions: MTCC 161, 18 h, read-out: DIZ
Bacillus pumilus [18] = experiment: Antibacterial activity against Bacillus pumilus MTCC 1456 at 100 ug/ml after 18 hr by cup-plate method; conditions: MTCC 1456, 18 h, read-out: DIZ
Pseudomonas aeruginosa [19] = experiment: Antibacterial activity against Pseudomonas aeruginosa MTCC 424 at 1500 ug/ml after 18 hr by cup-plate method; conditions: MTCC 424, 18 h, read-out: DIZ
Micrococcus luteus [20] = experiment: Antibacterial activity against Micrococcus luteus MTCC 1538 at 500 ug/ml after 18 hr by cup-plate method; conditions: MTCC 1538, 18 h, read-out: DIZ
Aspergillus niger [21] = experiment: Antifungal activity against Aspergillus niger MTCC 2546 at 500 ug/ml after 18 hr by cup-plate method; conditions: MTCC 2546, 18 h, read-out: DIZ
Pseudomonas fluorescens [22] = experiment: Antibacterial activity against Pseudomonas fluorescens MTCC 2421 at 200 ug/ml after 18 hr by cup-plate method; conditions: MTCC 2421, 18 h, read-out: DIZ
Pseudomonas fluorescens [23] = experiment: Antibacterial activity against Pseudomonas fluorescens MTCC 2421 after 24 hr by broth dilution method; conditions: MTCC 2421, 24 h
Escherichia coli = experiment: Antibacterial activity against Escherichia coli MTCC 1573 at 1000 ug/ml after 18 hr by cup-plate method; conditions: MTCC 1573, 18 h, read-out: DIZ
Bacillus subtilis [24] = experiment: Antibacterial activity against Bacillus subtilis MTCC 441 at 100 ug/ml after 18 hr by cup plate method; conditions: MTCC 441, 18 h, read-out: DIZ
Micrococcus luteus [25] = experiment: Antibacterial activity against Micrococcus luteus MTCC 1538 at 1500 ug/ml after 18 hr by cup-plate method; conditions: MTCC 1538, 18 h, read-out: DIZ
Bacillus pumilus [26] = experiment: Antibacterial activity against Bacillus pumilus MTCC 1456 at 1500 ug/ml after 18 hr by cup-plate method; conditions: MTCC 1456, 18 h, read-out: DIZ

- MIC (Staphylococcus aureus [3]): 300 µg/mL (≈ 1350 µM)
- MIC (Pseudomonas aeruginosa [8]): 300 µg/mL (≈ 1350 µM)
- MIC (Bacillus pumilus [16]): 200 µg/mL (≈ 902 µM)
- MIC (Pseudomonas fluorescens [23]): 300 µg/mL (≈ 1350 µM)
SMILES: Clc1ccc(/N=C/c2cccs2)cc1
- zone of inhibition at 1000 µg/mL (Bacillus pumilus [1]): 18 mm
- zone of inhibition at 1000 µg/mL (Bacillus subtilis [2]): 18 mm
- zone of inhibition at 100 µg/mL (Penicillium chrysogenum [4]): 13 mm
- zone of inhibition at 100 µg/mL (Staphylococcus aureus [5]): 12 mm
- zone of inhibition at 1500 µg/mL (Pseudomonas fluorescens [6]): 20 mm
- zone of inhibition at 500 µg/mL (Bacillus pumilus [7]): 17 mm
- zone of inhibition at 200 µg/mL (Pseudomonas aeruginosa [9]): 13 mm
- zone of inhibition at 1000 µg/mL (Staphylococcus aureus [10]): 16 mm
- zone of inhibition at 1000 µg/mL (Penicillium chrysogenum [11]): 17 mm
- zone of inhibition at 500 µg/mL (Pseudomonas fluorescens [12]): 16 mm
- zone of inhibition at 200 µg/mL (Staphylococcus aureus [13]): 13 mm
- zone of inhibition at 1000 µg/mL (Aspergillus niger [14]): 17 mm
- zone of inhibition at 200 µg/mL (Penicillium chrysogenum [15]): 14 mm
- zone of inhibition at 500 µg/mL (Penicillium chrysogenum [17]): 16 mm
- zone of inhibition at 100 µg/mL (Bacillus pumilus [18]): 13 mm
- zone of inhibition at 1500 µg/mL (Pseudomonas aeruginosa [19]): 19 mm
- zone of inhibition at 500 µg/mL (Micrococcus luteus [20]): 18 mm
- zone of inhibition at 500 µg/mL (Aspergillus niger [21]): 12 mm
- zone of inhibition at 200 µg/mL (Pseudomonas fluorescens [22]): 13 mm
- zone of inhibition at 1000 µg/mL (Escherichia coli): 19 mm
- zone of inhibition at 100 µg/mL (Bacillus subtilis [24]): 11 mm
- zone of inhibition at 1500 µg/mL (Micrococcus luteus [25]): 24 mm
- zone of inhibition at 1500 µg/mL (Bacillus pumilus [26]): 20 mm
